From PubChem BioAssay (NCI)
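All cell lines were grown in 96-well plates and treated with compound for 48 hours. At the GI50, growth is halved. At the TGI there is no net growth.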

How the values were obtained:
Assay in all cases: inhibition of tumour cell growth, NCI panel, 48 h
EKVX NSCLC = tested on: EKVX NSCLC
MDA-MB-231 breast = tested on: MDA-MB-231 breast
HCT-116 colon = tested on: HCT-116 colon
NCI/ADR-RES ovarian = tested on: NCI/ADR-RES ovarian
SW-620 colon = tested on: SW-620 colon
SK-OV-3 ovarian = tested on: SK-OV-3 ovarian
MCF7 breast = tested on: MCF7 breast
786-0 renal = tested on: 786-0 renal
A498 renal = tested on: A498 renal
UACC-62 melanoma = tested on: UACC-62 melanoma
OVCAR-4 ovarian = tested on: OVCAR-4 ovarian
M14 melanoma = tested on: M14 melanoma
HL-60(TB) leukemia = tested on: HL-60(TB) leukemia
OVCAR-3 ovarian = tested on: OVCAR-3 ovarian
KM12 colon = tested on: KM12 colon
NCI-H460 lung = tested on: NCI-H460 lung
HT29 colon = tested on: HT29 colon
SK-MEL-2 melanoma = tested on: SK-MEL-2 melanoma
UACC-257 melanoma = tested on: UACC-257 melanoma
HCC-2998 colon = tested on: HCC-2998 colon
HOP-92 NSCLC = tested on: HOP-92 NSCLC
BT-549 breast = tested on: BT-549 breast
U251 CNS = tested on: U251 CNS
MDA-MB-435 = tested on: MDA-MB-435
SN12C renal = tested on: SN12C renal
SK-MEL-5 melanoma = tested on: SK-MEL-5 melanoma
A549 NSCLC = tested on: A549 NSCLC
CCRF-CEM leukemia = tested on: CCRF-CEM leukemia
K-562 leukemia = tested on: K-562 leukemia
OVCAR-5 ovarian = tested on: OVCAR-5 ovarian
SF-295 CNS = tested on: SF-295 CNS
HCT-15 colon = tested on: HCT-15 colon
SNB-75 CNS = tested on: SNB-75 CNS
SF-268 CNS = tested on: SF-268 CNS
HOP-62 NSCLC = tested on: HOP-62 NSCLC
IGROV1 ovarian = tested on: IGROV1 ovarian
HS 578T breast = tested on: HS 578T breast
PC-3 prostate = tested on: PC-3 prostate
UO-31 renal = tested on: UO-31 renal
DU-145 prostate = tested on: DU-145 prostate
ACHN renal = tested on: ACHN renal
CAKI-1 renal = tested on: CAKI-1 renal
NCI-H522 lung = tested on: NCI-H522 lung
TK-10 renal = tested on: TK-10 renal
RXF 393 renal = tested on: RXF 393 renal
NCI-H23 lung = tested on: NCI-H23 lung
SF-539 CNS = tested on: SF-539 CNS
SNB-19 CNS = tested on: SNB-19 CNS
MALME-3M melanoma = tested on: MALME-3M melanoma
RPMI-8226 leukemia = tested on: RPMI-8226 leukemia
NCI-H226 lung = tested on: NCI-H226 lung
OVCAR-8 ovarian = tested on: OVCAR-8 ovarian
SK-MEL-28 melanoma = tested on: SK-MEL-28 melanoma

`Fc1ccc2[nH]cc(-c3nonc3-c3c[nH]c4ccc(Br)cc34)c2c1` showed a GI50 (EKVX NSCLC) of 1.88 µM, a TGI (EKVX NSCLC) of 6.01 µM and a GI50 (MDA-MB-231 breast) of 1.3 µM. The TGI (MDA-MB-231 breast) was 2.88 µM, the GI50 (HCT-116 colon) was 1.84 µM and the TGI (HCT-116 colon) was 4.23 µM. It also gave a GI50 (NCI/ADR-RES ovarian) of 2.87 µM, a TGI (NCI/ADR-RES ovarian) of 10.1 µM and a GI50 (SW-620 colon) of 1.76 µM. It also gave a TGI (SW-620 colon) of 3.84 µM, a GI50 (SK-OV-3 ovarian) of 4.34 µM and a TGI (SK-OV-3 ovarian) of 22.4 µM. The GI50 (MCF7 breast) was 2.19 µM, the TGI (MCF7 breast) was 5.66 µM and the GI50 (786-0 renal) was 2.16 µM. For the same molecule, the TGI (786-0 renal) was 4.5 µM, the GI50 (A498 renal) was 2.7 µM and the TGI (A498 renal) was 6.38 µM. The GI50 (UACC-62 melanoma) was 1.72 µM, the TGI (UACC-62 melanoma) was 4.38 µM and the GI50 (OVCAR-4 ovarian) was 3.45 µM. The TGI (OVCAR-4 ovarian) was 18.5 µM, the GI50 (M14 melanoma) was 1.87 µM and the TGI (M14 melanoma) was 4.98 µM. For the same molecule, the GI50 (HL-60(TB) leukemia) was 2.94 µM, the TGI (HL-60(TB) leukemia) was 11.6 µM and the GI50 (OVCAR-3 ovarian) was 2.07 µM. For the same molecule, the TGI (OVCAR-3 ovarian) was 5.43 µM, the GI50 (KM12 colon) was 1.77 µM and the TGI (KM12 colon) was 4.05 µM. It also gave a GI50 (NCI-H460 lung) of 2.07 µM, a TGI (NCI-H460 lung) of 4.88 µM and a GI50 (HT29 colon) of 2.01 µM. For the same molecule, the TGI (HT29 colon) was 4.03 µM, the GI50 (SK-MEL-2 melanoma) was 2.23 µM and the TGI (SK-MEL-2 melanoma) was 5.13 µM. It also gave a GI50 (UACC-257 melanoma) of 4.17 µM, a TGI (UACC-257 melanoma) of 13.8 µM and a GI50 (HCC-2998 colon) of 1.89 µM. It also gave a TGI (HCC-2998 colon) of 3.83 µM, a GI50 (HOP-92 NSCLC) of 1.97 µM and a TGI (HOP-92 NSCLC) of 5.52 µM. The GI50 (BT-549 breast) was 3.38 µM, the TGI (BT-549 breast) was 15 µM and the GI50 (U251 CNS) was 3.26 µM. It also gave a TGI (U251 CNS) of 10.3 µM, a GI50 (MDA-MB-435) of 3.27 µM and a TGI (MDA-MB-435) of 12.3 µM. For the same molecule, the GI50 (SN12C renal) was 3.13 µM, the TGI (SN12C renal) was 12.5 µM and the GI50 (SK-MEL-5 melanoma) was 1.88 µM. For the same molecule, the TGI (SK-MEL-5 melanoma) was 4.25 µM, the GI50 (A549 NSCLC) was 2.87 µM and the TGI (A549 NSCLC) was 7.99 µM. It also gave a GI50 (CCRF-CEM leukemia) of 3.07 µM, a TGI (CCRF-CEM leukemia) of 14.9 µM and a GI50 (K-562 leukemia) of 2.22 µM. For the same molecule, the TGI (K-562 leukemia) was 7.38 µM, the GI50 (OVCAR-5 ovarian) was 2.15 µM and the TGI (OVCAR-5 ovarian) was 5.8 µM. It also gave a GI50 (SF-295 CNS) of 1.94 µM, a TGI (SF-295 CNS) of 4.2 µM and a GI50 (HCT-15 colon) of 1.64 µM. For the same molecule, the TGI (HCT-15 colon) was 3.29 µM, the GI50 (SNB-75 CNS) was 1.89 µM and the TGI (SNB-75 CNS) was 16.9 µM. The GI50 (SF-268 CNS) was 3.01 µM, the TGI (SF-268 CNS) was 12.4 µM and the GI50 (HOP-62 NSCLC) was 1.89 µM. For the same molecule, the TGI (HOP-62 NSCLC) was 5.07 µM, the GI50 (IGROV1 ovarian) was 3.41 µM and the TGI (IGROV1 ovarian) was 18.3 µM. The GI50 (HS 578T breast) was 2.27 µM, the TGI (HS 578T breast) was 5.96 µM and the GI50 (PC-3 prostate) was 2.05 µM. For the same molecule, the TGI (PC-3 prostate) was 7.68 µM, the GI50 (UO-31 renal) was 1.39 µM and the TGI (UO-31 renal) was 4.36 µM. It also gave a GI50 (DU-145 prostate) of 3.57 µM, a TGI (DU-145 prostate) of 13.2 µM and a GI50 (ACHN renal) of 2 µM. It also gave a TGI (ACHN renal) of 8.42 µM, a GI50 (CAKI-1 renal) of 2.89 µM and a TGI (CAKI-1 renal) of 13.8 µM. For the same molecule, the GI50 (NCI-H522 lung) was 1.85 µM, the TGI (NCI-H522 lung) was 4.47 µM and the GI50 (TK-10 renal) was 3.04 µM. It also gave a TGI (TK-10 renal) of 6.63 µM, a GI50 (RXF 393 renal) of 2.85 µM and a TGI (RXF 393 renal) of 8.75 µM. The GI50 (NCI-H23 lung) was 1.95 µM, the TGI (NCI-H23 lung) was 5.86 µM and the GI50 (SF-539 CNS) was 2.15 µM. The TGI (SF-539 CNS) was 5.27 µM, the GI50 (SNB-19 CNS) was 2.25 µM and the TGI (SNB-19 CNS) was 5.69 µM. It also gave a GI50 (MALME-3M melanoma) of 2.34 µM, a TGI (MALME-3M melanoma) of 7.85 µM and a GI50 (RPMI-8226 leukemia) of 2.49 µM. It also gave a TGI (RPMI-8226 leukemia) of 9.91 µM, a GI50 (NCI-H226 lung) of 2.13 µM and a TGI (NCI-H226 lung) of 5.3 µM. The GI50 (OVCAR-8 ovarian) was 3.38 µM, the TGI (OVCAR-8 ovarian) was 17.5 µM and the GI50 (SK-MEL-28 melanoma) was 2.86 µM. It also gave a TGI (SK-MEL-28 melanoma) of 8.15 µM.
